Consider seven compounds from paper PMC8485799, “Synthesis and Antiprotozoal Profile of 3,4,5‐Trisubstituted Isoxazoles” (ChemistryOpen, 2021).

Data set [1] has as its system promastigote forms of Leishmania amazonensis (WHOM/BR/75/JOSEFA strain). Description: Antiproliferative assay (XTT), promastigote forms, 72 h. Type of data set: cell-based. The note with it: for IC50: promastigote form, 72 h, XTT, read-out: L. amazonensis IC50; for SIL-F, selectivity index (Fibroblast CC50/L. amazonensis IC50): fibroblast vs promastigote; for SIL-M, selectivity index (Macrophages CC50/L. amazonensis IC50): macrophages vs promastigote. In outline: (§1)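 Parasites at 1×10^6 mL^−1 with compound (DMSO stock diluted in medium): L. amazonensis promastigotes in Warren medium + 10% FBS at 25 °C for 72 h, T. cruzi epimastigotes in LIT medium + 10% FBS at 28 °C for 96 h. Viability by XTT/PMS for 4 h, absorbance at 450 nm. IC50 from % viable versus control.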

For a further data set, the system named is fibroblast line (L929). Description: Cytotoxicity assay in mammalian cells (MTT), fibroblasts, 72 h. The class given is cell-based. In outline: (§2)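 Cells pre-grown 24 h to confluence (L929 2.5×10^5, J774 A1 5×10^5 cells.mL^−1), then exposed to compound dilutions at 37 °C, 5 % CO2: L929 in DMEM/10 % FBS for 72 h, J774 A1 in RPMI‐1640/10 % FBS for 48 h. MTT (2 mg.mL^−1, 4 h), formazan read at […]; CC50 from viability versus untreated controls.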

Data set [2] concerns epimastigote forms of Trypanosoma cruzi (Y strain). Description: Antiproliferative assay (XTT), epimastigote forms, 96 h. Particulars: for IC50: epimastigote form, 96 h, XTT, read-out: T. cruzi IC50; for SIT-F, selectivity index (Fibroblast CC50/T. cruzi IC50): fibroblast vs epimastigote; for SIT-M, selectivity index (Macrophages CC50/T. cruzi IC50): macrophages vs epimastigote. Type of data set: cell-based. In outline:
as §1
A general note: Tetrazolium assays rely on reduction of a dye to a coloured formazan, in cell work by metabolically active cells.

The next data set has as its system macrophages (J774 A1). Description: Cytotoxicity assay in mammalian cells (MTT), macrophages, 48 h. The class given is cell-based. In outline: as §2
Data set [3] is described as follows: Cytotoxicity assay in mammalian cells (MTT), fibroblasts, 72 h. The class given is cell-based. The note with it: mouse, L929 fibroblast cells, pH 7.2; 50 % inhibition of fibroblast growth, 72 h, MTT. An outline of the steps:
as §2

Data set [4] is described as follows: Cytotoxicity assay in mammalian cells (MTT), macrophages, 48 h. Type of data set: cell-based. The note with it: mouse, J774 A1 macrophages, pH 7.2; 50 % inhibition of macrophages growth, 48 h, MTT. An outline of the steps: as §2
Data set [5] relates to both forms of L. amazonensis. Set-up: method as in PMID 27597410. The note with it: cited from earlier work.

Like-named read-outs stand apart in the source and are kept apart here.

`CCOC(=O)c1noc(-c2ccc([N+](=O)[O-])cc2)c1CNc1ccccc1` [2 aa, 3‐Carboxyethyl‐4‐(phenyl)aminomethyl‐5‐(4‐nitrophenyl)isoxazole]: the results for the IC50 in data set [1] and in data set [2] were 34.8 ± 1.7 µM and 54.2 ± 3 µM, respectively. The CC50 (commonly the concentration that lowers cell viability or growth by half) in the data set with fibroblast line (L929) was determined as 270 ± 8.9 µM; in the data set with macrophages (J774 A1) it was 202 ± 6.5 µM.
Consider `O=C(N/N=C/c1ccc(-c2cccs2)s1)c1noc(-c2ccccc2)c1CNc1ccc(Cl)cc1` [6 bb], for which the melting point (in general, the temperature, or range, at which the solid turns liquid) fell in the range of 211.1 to 213.9 °C. For the same compound, in data set [1] (Leishmania amazonensis), the IC50 (as a rule, the concentration that gives 50% inhibition) was found to be 18.4 ± 1.2 µM. In data set [1], the “SIL-F, selectivity index (Fibroblast CC50/L. amazonensis IC50)” value (shortened to “SIL-F, selectivity index”) came to 12.31 and the “SIL-M, selectivity index (Macrophages CC50/L. amazonensis IC50)” value (shortened to “SIL-M, selectivity index”) is 10.22. In addition, in data set [3], the cytotoxic concentration (CC50) at 72 h came out at 226 ± 8.7 µM. Further, the IC50 in data set [2] (Trypanosoma cruzi) is 19 ± 0.7 µM. In data set [2], the “SIT-F, selectivity index (Fibroblast CC50/T. cruzi IC50)” value (“SIT-F, selectivity index” below) amounted to 11.92 and the “SIT-M, selectivity index (Macrophages CC50/T. cruzi IC50)” value (shortened to “SIT-M, selectivity index”) came out at 9.90. Besides, in data set [4], it took 188 ± 7.4 µM to reach half-maximal cytotoxicity (CC50 at 48 h).
Compound `COc1ccc(NCc2c(C(=O)N/N=C/c3ccc(-c4cccs4)s3)noc2-c2ccccc2)cc1` [6 bc] came in with a melting point of 165.5 to 167 °C. Moreover, the half-inhibitory concentration (IC50) in data set [1] (Leishmania amazonensis) stood at 17.2 ± 3.1 µM. Besides, in data set [1], the “SIL-F, selectivity index” value came out at 11.5 and the “SIL-M, selectivity index” value is recorded as 9.91. It took 198 ± 5.9 µM to reach half-maximal cytotoxicity in data set [3] (CC50 at 72 h). For the same compound, the IC50 in data set [2] (Trypanosoma cruzi) is 18.1 ± 2.4 µM. Also, in data set [2], the “SIT-F, selectivity index” value was found to be 10.9 and the “SIT-M, selectivity index” value worked out at 9.42. Besides, the CC50 at 48 h in data set [4] was 170 ± 3.3 µM.
For the compound `O=C(N/N=C/c1ccc(-c2cccs2)s1)c1noc(-c2ccc(Cl)cc2)c1CNc1ccccc1` [6 da], the melting point lay in the range of 208.4 to 209.9 °C. In addition, in data set [1] (Leishmania amazonensis), the IC50 was 28 ± 1.3 µM. In addition, in data set [1], the “SIL-F, selectivity index” value is on record as 12.39 and the “SIL-M, selectivity index” value came out at 11.14. In addition, in data set [3], the CC50 at 72 h was found to be 347 ± 8.4 µM. Besides, in data set [2] (Trypanosoma cruzi), the concentration for half-maximal inhibition (IC50) worked out at 27.2 ± 2.5 µM. Also, in data set [2], the “SIT-F, selectivity index” value is recorded as 12.76 and the “SIT-M, selectivity index” value came to 11.47. This compound also returned a CC50 at 48 h in data set [4] of 312 ± 4.3 µM.
In turn, `COc1ccc(NCc2c(C(=O)N/N=C/c3ccc(-c4cccs4)s3)noc2-c2ccc(Cl)cc2)cc1` [6 dc] gave a melting point of 199.9 to 202.7 °C. Besides, the IC50 in data set [1] (Leishmania amazonensis) turned out to be 32.7 ± 3 µM. In data set [1], the “SIL-F, selectivity index” value was found to be 12.16 and the “SIL-M, selectivity index” value was determined as 9.45. In addition, in data set [3], the CC50 at 72 h was 398 ± 7.8 µM. Moreover, the IC50 in data set [2] (Trypanosoma cruzi) came out at 30.5 ± 1.6 µM. In data set [2], the “SIT-F, selectivity index” value turned out to be 13.0 and the “SIT-M, selectivity index” value is reported as 10.1. This compound showed a half-maximal cytotoxic concentration (CC50) at 48 h in data set [4] of 309 ± 8 µM.
As to `O=C(N/N=C/c1cccs1)c1nn(-c2ccccc2)c(=O)c2c1cnn2-c1ccccc1` [IV], the “Activity against both forms of L. amazonensis” value in data set [5] is listed as “good activity values”.
Take `O=C(N/N=C/c1ccc(-c2cccs2)s1)c1nn(-c2ccccc2)c(=O)c2c1cnn2-c1ccccc1` [V]: in data set [5], the “Activity against both forms of L. amazonensis” value is on record as “good activity values”.
